# What was measured:
# [1] = target: NUAK family SNF1-like kinase 1 (Homo sapiens) (UniProt O60285); test: Inhibition of recombinant human His-tagged full length ARK5 expressed in baculovirus expression system using CHKtide as substrate at 10 uM incubated for 60 mins by Adapta assay relative to control
# [2] = target: Ephrin type-A receptor 1 (Homo sapiens) (UniProt P21709); test: Inhibition of recombinant human GST-tagged EPHA1 (568 to 976 residues) expressed in baculovirus expression system using Tyr 02 as substrate at 10 uM incubated for 60 mins by Z'-Lyte assay relative to control
# [3] = target: Focal adhesion kinase 1 (Homo sapiens) (UniProt Q05397); test: Inhibition of recombinant human GST-tagged full length FAK expressed in baculovirus expression system using Tyr 07 as substrate at 10 uM incubated for 60 mins by Z'-Lyte assay relative to control
# [4] = target: Mitogen-activated protein kinase 9 (Homo sapiens) (UniProt P45984); test: Inhibition of recombinant human His-tagged full length JNK2 expressed in baculovirus expression system using Ser/Thr 04 as substrate at 10 uM incubated for 60 mins by Z'-lyte assay relative to control
# [5] = target: Tyrosine-protein kinase Mer (Homo sapiens) (UniProt Q12866); test: Inhibition of recombinant human GST-tagged MER (578 to 872 residues) expressed in baculovirus expression system using Tyr 02 as substrate at 10 uM incubated for 60 mins by Z'-lyte assay relative to control
# [6] = target: Misshapen-like kinase 1 (Homo sapiens) (UniProt Q8N4C8); test: Inhibition of recombinant human GST-tagged MINK1 (1 to 320 residues) expressed in baculovirus expression system using Ser/Thr 07 as substrate at 10 uM incubated for 60 mins by Z'-lyte assay relative to control
# [7] = species on record: Homo sapiens; test: Inhibition of recombinant human His-tagged PKA (1 to 351 residues) expressed in Escherichia coli expression system using Ser/Thr 01 as substrate at 10 uM incubated for 60 mins by Z'-lyte assay relative to control
# [8] = target: Ribosomal protein S6 kinase alpha-2 (Homo sapiens) (UniProt Q15349); test: Inhibition of recombinant human GST-tagged full length RSK3 expressed in insect expression system using Ser/Thr 06 as substrate at 10 uM incubated for 60 mins by Z'-Lyte assay relative to control
# [9] = target: Serine/threonine-protein kinase 16 (Homo sapiens) (UniProt O75716); test: Inhibition of tracer 236 binding to recombinant human His-tagged full length STK16 expressed in baculovirus expression system at 10 uM incubated for 60 mins by Lanthascreen assay relative to control
# [10] = target: TAK1/TAB1 (Homo sapiens) (UniProt Q15750+O43318); test: Inhibition of tracer 236 binding to recombinant human His-tagged full length TAK1-TAB1 expressed in baculovirus expression system at 10 uM incubated for 60 mins by Lanthascreen assay relative to control
# [11] = target: Angiopoietin-1 receptor (Homo sapiens) (UniProt Q02763); test: Inhibition of recombinant human GST-tagged TIE2 (817 to 1101 residues) expressed in baculovirus expression system using Ser/Thr 05 as substrate at 10 uM incubated for 60 mins by Z'-Lyte assay relative to control
# Chain of Misshapen-like kinase 1 (Homo sapiens) (Q8N4C8 whole entry, looked up, the tested form may be a part): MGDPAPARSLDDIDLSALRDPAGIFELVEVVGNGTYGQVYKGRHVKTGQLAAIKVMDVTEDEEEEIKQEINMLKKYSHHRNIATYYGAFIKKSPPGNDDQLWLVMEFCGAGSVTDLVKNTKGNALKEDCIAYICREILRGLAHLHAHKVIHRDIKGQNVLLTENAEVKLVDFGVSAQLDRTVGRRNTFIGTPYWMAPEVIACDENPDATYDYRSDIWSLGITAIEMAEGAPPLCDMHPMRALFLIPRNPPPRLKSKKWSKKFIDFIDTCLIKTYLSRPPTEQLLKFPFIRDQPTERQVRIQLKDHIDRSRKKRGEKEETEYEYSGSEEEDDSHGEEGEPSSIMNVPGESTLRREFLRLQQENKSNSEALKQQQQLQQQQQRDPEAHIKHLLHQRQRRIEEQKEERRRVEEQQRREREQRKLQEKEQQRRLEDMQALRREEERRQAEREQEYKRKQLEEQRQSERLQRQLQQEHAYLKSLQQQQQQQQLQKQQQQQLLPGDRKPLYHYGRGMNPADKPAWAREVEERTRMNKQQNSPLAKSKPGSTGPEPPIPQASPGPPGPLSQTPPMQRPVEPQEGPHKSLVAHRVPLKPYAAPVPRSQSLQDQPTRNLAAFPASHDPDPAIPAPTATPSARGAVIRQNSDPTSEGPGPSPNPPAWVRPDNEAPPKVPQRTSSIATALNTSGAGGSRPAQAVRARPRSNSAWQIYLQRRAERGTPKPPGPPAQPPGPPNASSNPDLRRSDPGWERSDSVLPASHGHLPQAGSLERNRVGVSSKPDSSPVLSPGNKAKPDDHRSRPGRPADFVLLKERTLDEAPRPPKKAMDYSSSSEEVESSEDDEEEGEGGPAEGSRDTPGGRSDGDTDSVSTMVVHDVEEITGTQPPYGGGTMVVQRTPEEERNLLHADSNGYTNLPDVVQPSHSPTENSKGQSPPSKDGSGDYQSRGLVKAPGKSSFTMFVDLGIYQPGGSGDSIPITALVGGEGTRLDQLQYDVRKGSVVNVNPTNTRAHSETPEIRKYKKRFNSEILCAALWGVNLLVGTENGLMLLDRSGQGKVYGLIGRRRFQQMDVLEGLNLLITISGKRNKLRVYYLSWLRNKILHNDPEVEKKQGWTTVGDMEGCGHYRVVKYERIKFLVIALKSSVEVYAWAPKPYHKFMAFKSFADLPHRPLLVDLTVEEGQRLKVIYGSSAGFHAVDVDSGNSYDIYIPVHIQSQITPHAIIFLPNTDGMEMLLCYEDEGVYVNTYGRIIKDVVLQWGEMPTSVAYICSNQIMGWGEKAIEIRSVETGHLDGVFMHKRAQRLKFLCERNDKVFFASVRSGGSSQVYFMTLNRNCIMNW
# Chain of Ribosomal protein S6 kinase alpha-2 (Homo sapiens) (Q15349 whole entry): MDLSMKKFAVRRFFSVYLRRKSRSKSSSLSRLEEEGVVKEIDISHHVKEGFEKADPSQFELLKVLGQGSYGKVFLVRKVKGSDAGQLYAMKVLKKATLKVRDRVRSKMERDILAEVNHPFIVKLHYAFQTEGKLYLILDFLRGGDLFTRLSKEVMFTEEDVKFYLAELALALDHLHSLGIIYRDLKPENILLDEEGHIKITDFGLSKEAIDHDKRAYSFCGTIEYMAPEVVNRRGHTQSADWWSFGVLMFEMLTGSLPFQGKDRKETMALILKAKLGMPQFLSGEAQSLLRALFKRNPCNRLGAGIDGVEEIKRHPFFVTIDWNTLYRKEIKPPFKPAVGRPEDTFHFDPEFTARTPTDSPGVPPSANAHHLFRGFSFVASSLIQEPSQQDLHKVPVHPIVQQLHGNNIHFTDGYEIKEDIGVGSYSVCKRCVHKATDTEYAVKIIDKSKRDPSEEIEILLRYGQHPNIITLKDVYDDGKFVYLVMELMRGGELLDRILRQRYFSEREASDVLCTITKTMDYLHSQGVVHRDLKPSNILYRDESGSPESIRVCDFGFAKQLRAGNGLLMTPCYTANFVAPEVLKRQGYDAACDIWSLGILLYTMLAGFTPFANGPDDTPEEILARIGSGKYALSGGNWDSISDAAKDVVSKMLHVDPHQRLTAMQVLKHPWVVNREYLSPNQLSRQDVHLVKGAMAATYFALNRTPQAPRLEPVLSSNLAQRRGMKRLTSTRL
# Chain of Mitogen-activated protein kinase 9 (Homo sapiens) (P45984 whole entry, looked up, the tested form may be a part): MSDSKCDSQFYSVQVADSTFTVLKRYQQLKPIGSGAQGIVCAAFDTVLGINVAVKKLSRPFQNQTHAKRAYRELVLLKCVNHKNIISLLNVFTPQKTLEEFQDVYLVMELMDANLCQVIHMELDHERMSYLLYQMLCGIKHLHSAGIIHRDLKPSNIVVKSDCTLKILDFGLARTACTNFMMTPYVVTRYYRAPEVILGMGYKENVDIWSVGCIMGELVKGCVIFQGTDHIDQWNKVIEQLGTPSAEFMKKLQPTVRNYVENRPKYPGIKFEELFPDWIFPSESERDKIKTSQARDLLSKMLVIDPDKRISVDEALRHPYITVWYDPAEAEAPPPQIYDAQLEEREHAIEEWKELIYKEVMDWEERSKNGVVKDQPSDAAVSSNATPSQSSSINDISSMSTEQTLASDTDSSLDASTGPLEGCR
# Chain of Tyrosine-protein kinase Mer (Homo sapiens) (Q12866 whole entry, the tested form may be a part): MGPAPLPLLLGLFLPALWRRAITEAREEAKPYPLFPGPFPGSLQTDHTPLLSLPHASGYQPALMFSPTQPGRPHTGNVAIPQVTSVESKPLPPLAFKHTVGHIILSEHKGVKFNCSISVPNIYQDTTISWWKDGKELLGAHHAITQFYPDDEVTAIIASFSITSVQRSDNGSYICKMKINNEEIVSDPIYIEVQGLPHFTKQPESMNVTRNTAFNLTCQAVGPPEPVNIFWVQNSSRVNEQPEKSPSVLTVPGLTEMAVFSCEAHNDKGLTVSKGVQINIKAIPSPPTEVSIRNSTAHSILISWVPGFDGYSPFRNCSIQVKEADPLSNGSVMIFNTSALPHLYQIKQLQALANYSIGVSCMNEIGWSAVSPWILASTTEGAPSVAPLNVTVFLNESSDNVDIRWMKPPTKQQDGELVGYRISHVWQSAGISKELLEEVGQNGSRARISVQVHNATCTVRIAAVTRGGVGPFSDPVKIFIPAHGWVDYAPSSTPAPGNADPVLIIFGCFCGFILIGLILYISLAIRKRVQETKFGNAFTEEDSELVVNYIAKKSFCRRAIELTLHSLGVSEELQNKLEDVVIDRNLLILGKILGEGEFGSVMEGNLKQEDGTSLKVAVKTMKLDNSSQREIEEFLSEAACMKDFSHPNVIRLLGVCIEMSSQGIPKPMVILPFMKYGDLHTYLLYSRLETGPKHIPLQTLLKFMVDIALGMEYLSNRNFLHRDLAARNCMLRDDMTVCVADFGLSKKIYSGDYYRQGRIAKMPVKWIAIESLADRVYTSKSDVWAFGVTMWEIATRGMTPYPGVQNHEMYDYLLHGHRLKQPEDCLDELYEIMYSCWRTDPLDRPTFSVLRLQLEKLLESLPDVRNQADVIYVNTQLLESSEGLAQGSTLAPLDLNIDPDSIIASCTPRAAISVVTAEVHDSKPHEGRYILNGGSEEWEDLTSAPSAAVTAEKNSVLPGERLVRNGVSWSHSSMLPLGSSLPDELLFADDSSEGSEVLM
# Chain of Ephrin type-A receptor 1 (Homo sapiens) (P21709 whole entry, the tested form may be a part): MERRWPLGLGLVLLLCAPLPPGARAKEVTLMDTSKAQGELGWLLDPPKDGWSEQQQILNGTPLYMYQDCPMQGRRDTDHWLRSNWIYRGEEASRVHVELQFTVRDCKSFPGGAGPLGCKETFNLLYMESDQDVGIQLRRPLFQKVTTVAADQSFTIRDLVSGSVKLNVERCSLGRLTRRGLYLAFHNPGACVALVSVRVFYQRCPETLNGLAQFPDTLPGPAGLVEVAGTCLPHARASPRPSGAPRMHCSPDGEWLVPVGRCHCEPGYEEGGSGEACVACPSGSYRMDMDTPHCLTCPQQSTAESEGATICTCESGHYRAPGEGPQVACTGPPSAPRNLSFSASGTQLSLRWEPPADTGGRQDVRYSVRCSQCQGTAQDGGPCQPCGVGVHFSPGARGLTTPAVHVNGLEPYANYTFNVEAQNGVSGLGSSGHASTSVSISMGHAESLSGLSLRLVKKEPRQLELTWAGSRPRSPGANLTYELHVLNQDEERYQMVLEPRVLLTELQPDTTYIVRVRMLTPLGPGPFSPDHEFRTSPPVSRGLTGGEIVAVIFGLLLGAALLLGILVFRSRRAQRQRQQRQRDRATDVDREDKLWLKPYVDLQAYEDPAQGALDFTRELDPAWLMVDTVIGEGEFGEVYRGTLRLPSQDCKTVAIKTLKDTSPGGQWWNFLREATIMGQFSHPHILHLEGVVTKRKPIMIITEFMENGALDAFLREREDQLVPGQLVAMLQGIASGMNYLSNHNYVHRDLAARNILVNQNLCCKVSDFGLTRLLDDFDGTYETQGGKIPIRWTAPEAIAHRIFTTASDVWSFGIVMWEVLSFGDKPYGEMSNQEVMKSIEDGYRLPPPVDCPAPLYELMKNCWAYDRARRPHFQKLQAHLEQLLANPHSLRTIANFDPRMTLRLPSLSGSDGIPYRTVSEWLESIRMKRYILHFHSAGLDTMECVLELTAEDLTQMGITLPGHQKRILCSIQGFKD
# Chain of Serine/threonine-protein kinase 16 (Homo sapiens) (O75716 whole entry): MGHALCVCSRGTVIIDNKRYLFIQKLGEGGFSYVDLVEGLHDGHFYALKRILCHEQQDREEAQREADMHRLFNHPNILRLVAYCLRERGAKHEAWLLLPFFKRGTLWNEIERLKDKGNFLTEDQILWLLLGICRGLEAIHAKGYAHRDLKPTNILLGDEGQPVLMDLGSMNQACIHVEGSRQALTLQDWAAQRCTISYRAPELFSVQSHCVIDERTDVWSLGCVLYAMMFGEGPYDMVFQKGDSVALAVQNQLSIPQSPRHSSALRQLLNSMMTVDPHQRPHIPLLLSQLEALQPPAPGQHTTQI
smiles,measurement,setting,value
CN1C(=O)[C@@H](NC(=O)c2n[nH]c3ncc(C(F)(F)C(F)(F)F)cc23)COc2ccccc21,inhibition,[1],8.5%
same,inhibition,[2],6.5%
same,inhibition,[3],0.5%
same,inhibition,[4],0.5%
same,inhibition,[5],-4%
same,inhibition,[6],12.5%
same,inhibition,[7],-1%
same,inhibition,[8],-4.5%
same,inhibition,[9],3%
same,inhibition,[10],7.5%
same,inhibition,[11],8.5%

# Source: ChEMBL document CHEMBL4665648, “Potent and selective inhibitors of receptor-interacting protein kinase 1 that lack an aromatic back pocket group” (Bioorg Med Chem Lett, 2019)
